The source of these data is patent US7964638B2, “Skin cosmetic and wrinkle-reducing agent” (Kao Corporation, priority 2005, dated 2011).

The data set is described as follows: Normal safety test.

With `O[C@@H]1CO[C@H]2[C@@H]1OC[C@@H]2O` [isosorbide], the Normal safety test entry is recorded as “no problem occurred”.
